Test results from US12077503B2, “Substituted cyclic amides and their use as herbicides” (FMC CORPORATION, priority 2015, dated 2024).

What was measured:
Type in all cases: in vivo
corn (Zea mays) [1] = test: Test G Post-Emergence Protocol; settings: Zea mays, post-emergence, 312 h, read-out: Corn damage rating; for plant injury at 15.625 g/ha: 15.625 g ai/ha, evaluated after 13 days (100=total damage to plant; 0=no damage to plant); for plant injury at 62.5 g/ha: 62.5 g ai/ha; for plant injury at 62.5 g/ha / plant injury at 250 g/ha: evaluated after 13 days, 100=total damage to plant, 0=no damage to plant; for plant injury at 250 g/ha: 250 g ai/ha
Method in brief: (§1)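 Sow in soil; grow 8 d (24/16 °C, 14 h light, 65% humidity); spray 15.625/62.5/250 g/ha in acetone:water 50:50 + 0.5% Tween 20; grow on, water twice daily; score damage 0–100 at 13 d.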

[2] = system: velvetleaf (Abutilon theophrasti); test: Test G Post-Emergence Protocol; settings: Abutilon theophrasti, post-emergence, 312 h, read-out: Velvetleaf damage rating; for pest or weed control at 15.625 g/ha: 15.625 g ai/ha, evaluated after 13 days (100=total damage to plant; 0=no damage to plant); for pest or weed control at 62.5 g/ha: 62.5 g ai/ha; for pest or weed control at 62.5 g/ha / pest or weed control at 250 g/ha: evaluated after 13 days, 100=total damage to plant, 0=no damage to plant; for pest or weed control at 250 g/ha: 250 g ai/ha
Method in brief: as §1

[3] = system: ivy-leaved morning glory (Ipomoea hederacea); test: Test G Post-Emergence Protocol; settings: Ipomoea, post-emergence, 312 h, read-out: Morningglory, Ivy-leaved damage rating; for pest or weed control at 15.625 g/ha: 15.625 g ai/ha, evaluated after 13 days (100=total damage to plant; 0=no damage to plant); for pest or weed control at 62.5 g/ha: 62.5 g ai/ha; for pest or weed control at 62.5 g/ha / pest or weed control at 250 g/ha: evaluated after 13 days, 100=total damage to plant, 0=no damage to plant; for pest or weed control at 250 g/ha: 250 g ai/ha
Method in brief: as §1

[4] = system: redroot pigweed (Amaranthus retroflexus); test: Test G Post-Emergence Protocol; settings: Amaranthus retroflexus, post-emergence, 312 h, read-out: Pigweed, Redroot damage rating; for pest or weed control at 15.625 g/ha: 15.625 g ai/ha, evaluated after 13 days (100=total damage to plant; 0=no damage to plant); for pest or weed control at 62.5 g/ha: 62.5 g ai/ha; for pest or weed control at 62.5 g/ha / pest or weed control at 250 g/ha: evaluated after 13 days, 100=total damage to plant, 0=no damage to plant; for pest or weed control at 250 g/ha: 250 g ai/ha
Method in brief: as §1

[5] = system: giant foxtail (Setaria faberi); test: Test G Post-Emergence Protocol; settings: Setaria faberi, post-emergence, 312 h, read-out: Foxtail, Giant damage rating; for pest or weed control at 15.625 g/ha: 15.625 g ai/ha, evaluated after 13 days (100=total damage to plant; 0=no damage to plant); for pest or weed control at 62.5 g/ha: 62.5 g ai/ha; for pest or weed control at 62.5 g/ha / pest or weed control at 250 g/ha: evaluated after 13 days, 100=total damage to plant, 0=no damage to plant; for pest or weed control at 250 g/ha: 250 g ai/ha
Method in brief: as §1

[6] = system: barnyardgrass (Echinochloa crus-galli); test: Test G Post-Emergence Protocol; settings: Echinochloa crus-galli, post-emergence, 312 h, read-out: Barnyardgrass damage rating; for pest or weed control at 15.625 g/ha: 15.625 g ai/ha, evaluated after 13 days (100=total damage to plant; 0=no damage to plant); for pest or weed control at 62.5 g/ha: 62.5 g ai/ha; for pest or weed control at 62.5 g/ha / pest or weed control at 250 g/ha: evaluated after 13 days, 100=total damage to plant, 0=no damage to plant; for pest or weed control at 250 g/ha: 250 g ai/ha
Method in brief: as §1

corn (Zea mays) [7] = test: Test G Pre-Emergence Protocol; settings: Zea mays, pre-emergence, 312 h, evaluated after 13 days; for plant injury at 15.625 g/ha: 15.625 g ai/ha; for plant injury at 15.625 g/ha / plant injury at 250 g/ha: read-out: Corn damage rating (100=total damage to plant; 0=no damage to plant); for plant injury at 62.5 g/ha: 62.5 g ai/ha, 100=total damage to plant, 0=no damage to plant, read-out: Corn damage rating; for plant injury at 250 g/ha: 250 g ai/ha
Method in brief: (§2)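 Glasshouse pre-emergence test: soil-sown seeds, sprayed after 1 d at 15.625, 62.5 or 250 g/ha. Conditions 24/16° C day/night, 14 h light, 65% humidity, watering twice daily. Rating 13 d post-spray (100 = total damage).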

[8] = system: velvetleaf (Abutilon theophrasti); test: Test G Pre-Emergence Protocol; settings: Abutilon theophrasti, pre-emergence, 312 h, evaluated after 13 days; for pest or weed control at 15.625 g/ha: 15.625 g ai/ha; for pest or weed control at 15.625 g/ha / pest or weed control at 250 g/ha: read-out: Velvetleaf damage rating (100=total damage to plant; 0=no damage to plant); for pest or weed control at 62.5 g/ha: 62.5 g ai/ha, 100=total damage to plant, 0=no damage to plant, read-out: Velvetleaf damage rating; for pest or weed control at 250 g/ha: 250 g ai/ha
Method in brief: as §2

[9] = system: ivy-leaved morning glory (Ipomoea hederacea); test: Test G Pre-Emergence Protocol; settings: Ipomoea, pre-emergence, 312 h, evaluated after 13 days; for pest or weed control at 15.625 g/ha: 15.625 g ai/ha; for pest or weed control at 15.625 g/ha / pest or weed control at 250 g/ha: read-out: Morningglory, Ivy-leaved damage rating (100=total damage to plant; 0=no damage to plant); for pest or weed control at 62.5 g/ha: 62.5 g ai/ha, 100=total damage to plant, 0=no damage to plant, read-out: Morningglory, Ivy-leaved damage rating; for pest or weed control at 250 g/ha: 250 g ai/ha
Method in brief: as §2

[10] = system: redroot pigweed (Amaranthus retroflexus); test: Test G Pre-Emergence Protocol; settings: Amaranthus retroflexus, pre-emergence, 312 h, evaluated after 13 days; for pest or weed control at 15.625 g/ha: 15.625 g ai/ha; for pest or weed control at 15.625 g/ha / pest or weed control at 250 g/ha: read-out: Pigweed, Redroot damage rating (100=total damage to plant; 0=no damage to plant); for pest or weed control at 62.5 g/ha: 62.5 g ai/ha, 100=total damage to plant, 0=no damage to plant, read-out: Pigweed, Redroot damage rating; for pest or weed control at 250 g/ha: 250 g ai/ha
Method in brief: as §2

[11] = system: giant foxtail (Setaria faberi); test: Test G Pre-Emergence Protocol; settings: Setaria faberi, pre-emergence, 312 h, evaluated after 13 days; for pest or weed control at 15.625 g/ha: 15.625 g ai/ha; for pest or weed control at 15.625 g/ha / pest or weed control at 250 g/ha: read-out: Foxtail, Giant damage rating (100=total damage to plant; 0=no damage to plant); for pest or weed control at 62.5 g/ha: 62.5 g ai/ha, 100=total damage to plant, 0=no damage to plant, read-out: Foxtail, Giant damage rating; for pest or weed control at 250 g/ha: 250 g ai/ha
Method in brief: as §2

[12] = system: barnyardgrass (Echinochloa crus-galli); test: Test G Pre-Emergence Protocol; settings: Echinochloa crus-galli, pre-emergence, 312 h, evaluated after 13 days; for pest or weed control at 15.625 g/ha: 15.625 g ai/ha; for pest or weed control at 15.625 g/ha / pest or weed control at 250 g/ha: read-out: Barnyardgrass damage rating (100=total damage to plant; 0=no damage to plant); for pest or weed control at 62.5 g/ha: 62.5 g ai/ha, 100=total damage to plant, 0=no damage to plant, read-out: Barnyardgrass damage rating; for pest or weed control at 250 g/ha: 250 g ai/ha
Method in brief: as §2

SMILES | plant injury at 15.625 g/ha (corn (Zea mays) [1]) | plant injury at 62.5 g/ha (corn (Zea mays) [1]) | plant injury at 250 g/ha (corn (Zea mays) [1]) | pest or weed control at 15.625 g/ha [2] | pest or weed control at 62.5 g/ha [2] | pest or weed control at 250 g/ha [2] | pest or weed control at 15.625 g/ha [3] | pest or weed control at 62.5 g/ha [3] | pest or weed control at 250 g/ha [3] | pest or weed control at 15.625 g/ha [4] | pest or weed control at 62.5 g/ha [4] | pest or weed control at 250 g/ha [4] | pest or weed control at 15.625 g/ha [5] | pest or weed control at 62.5 g/ha [5] | pest or weed control at 250 g/ha [5] | pest or weed control at 15.625 g/ha [6] | pest or weed control at 62.5 g/ha [6] | pest or weed control at 250 g/ha [6] | plant injury at 15.625 g/ha (corn (Zea mays) [7]) | plant injury at 62.5 g/ha (corn (Zea mays) [7]) | also measured
COc1cc(OC(F)(F)F)cc(C2CN(C)C(=O)C2C(=O)Nc2cccc(F)c2F)c1 (stereo not drawn) [Compound 1697] | 10% | 80% | 80% | 0% | 30% | 30% | 30% | 60% | 60% | 20% | 60% | 70% | 80% | 80% | 80% | 60% | 70% | 90% | 0% | 40% | plant injury at 250 g/ha (corn (Zea mays) [7]): 50%; pest or weed control at 15.625 g/ha [8]: 0%; pest or weed control at 62.5 g/ha [8]: 0%; pest or weed control at 250 g/ha [8]: 20%; pest or weed control at 15.625 g/ha [9]: 0%; pest or weed control at 62.5 g/ha [9]: 0%; pest or weed control at 250 g/ha [9]: 0%; pest or weed control at 15.625 g/ha [10]: 0%; pest or weed control at 62.5 g/ha [10]: 0%; pest or weed control at 250 g/ha [10]: 20%; pest or weed control at 15.625 g/ha [11]: 70%; pest or weed control at 62.5 g/ha [11]: 80%; pest or weed control at 250 g/ha [11]: 80%; pest or weed control at 15.625 g/ha [12]: 40%; pest or weed control at 62.5 g/ha [12]: 70%; pest or weed control at 250 g/ha [12]: 80%
COc1cc(F)cc(C2CN(C)C(=O)C2C(=O)Nc2cccc(F)c2F)c1 (stereo not drawn) [Compound 1699] | 0% | 30% | 70% | 0% | 0% | 30% | 10% | 30% | 70% | 0% | 0% | 30% | 80% | 80% | 80% | 60% | 80% | 90% | 0% | 30% | plant injury at 250 g/ha (corn (Zea mays) [7]): 70%; pest or weed control at 15.625 g/ha [8]: 0%; pest or weed control at 62.5 g/ha [8]: 0%; pest or weed control at 250 g/ha [8]: 0%; pest or weed control at 15.625 g/ha [9]: 0%; pest or weed control at 62.5 g/ha [9]: 10%; pest or weed control at 250 g/ha [9]: 70%; pest or weed control at 15.625 g/ha [10]: 0%; pest or weed control at 62.5 g/ha [10]: 0%; pest or weed control at 250 g/ha [10]: 0%; pest or weed control at 15.625 g/ha [11]: 80%; pest or weed control at 62.5 g/ha [11]: 90%; pest or weed control at 250 g/ha [11]: 90%; pest or weed control at 15.625 g/ha [12]: 60%; pest or weed control at 62.5 g/ha [12]: 80%; pest or weed control at 250 g/ha [12]: 90%
COc1cc(C2CN(C)C(=O)C2C(=O)Nc2cccc(F)c2F)cc(C(F)(F)F)c1F (stereo not drawn) [Compound 1701] | 10% | 30% | 50% | 0% | 0% | 0% | 0% | 0% | 30% | 0% | 0% | 30% | 40% | 60% | 60% | 10% | 60% | 70% | 0% | 0% | plant injury at 250 g/ha (corn (Zea mays) [7]): 30%; pest or weed control at 15.625 g/ha [8]: 0%; pest or weed control at 62.5 g/ha [8]: 0%; pest or weed control at 250 g/ha [8]: 0%; pest or weed control at 15.625 g/ha [9]: 0%; pest or weed control at 62.5 g/ha [9]: 20%; pest or weed control at 250 g/ha [9]: 20%; pest or weed control at 15.625 g/ha [10]: 0%; pest or weed control at 62.5 g/ha [10]: 0%; pest or weed control at 250 g/ha [10]: 10%; pest or weed control at 15.625 g/ha [11]: 40%; pest or weed control at 62.5 g/ha [11]: 80%; pest or weed control at 250 g/ha [11]: 90%; pest or weed control at 15.625 g/ha [12]: 0%; pest or weed control at 62.5 g/ha [12]: 30%; pest or weed control at 250 g/ha [12]: 70%
